Assay results taken from ChEMBL document CHEMBL1133756, “A potent aldose reductase inhibitor, (2S,4S)-6-fluoro-2', 5'-dioxospiro[chroman-4,4'-imidazolidine]-2-carboxamide (Fidarestat): its absolute configuration and interactions with the aldose reductase by X-ray crystallography” (J Med Chem, 2000).

Key:
[1] = target: Aldo-keto reductase family 1 member B1 (Rattus norvegicus, UniProt P07943); assay: Tested for in vitro inhibition activity against rat Aldose reductase (AR)
[2] = target: Aldo-keto reductase family 1 member B1 (Homo sapiens, UniProt P15121); assay: Tested for in vitro inhibition activity against human Aldose reductase (human AR)
[3] = target: T1, Aldo-keto reductase family 1 member A1 (Homo sapiens, UniProt P14550); assay: Tested for in vitro inhibition activity against human aldehyde reductase (AHR)
T1 sequence (P14550 whole entry): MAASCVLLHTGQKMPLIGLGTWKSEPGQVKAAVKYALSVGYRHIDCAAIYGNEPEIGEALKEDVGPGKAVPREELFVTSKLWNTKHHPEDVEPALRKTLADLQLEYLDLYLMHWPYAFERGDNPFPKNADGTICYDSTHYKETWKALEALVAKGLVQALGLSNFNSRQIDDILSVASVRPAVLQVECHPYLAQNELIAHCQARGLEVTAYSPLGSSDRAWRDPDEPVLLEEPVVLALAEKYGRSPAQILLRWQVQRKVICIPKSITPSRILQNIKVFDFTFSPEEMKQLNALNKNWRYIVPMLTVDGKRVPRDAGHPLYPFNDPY

| IC50 [1] | IC50 [2] | IC50 [3] | SMILES |
| --- | --- | --- | --- |
| 570 nM | – | – | NC(=O)[C@H]1C[C@]2(NC(=O)NC2=O)c2cc(F)ccc2O1 |
| 35 nM | 9 nM | 1200 nM | NC(=O)[C@@H]1C[C@]2(NC(=O)NC2=O)c2cc(F)ccc2O1 |
